What all share (format): functional
In test [1] the test system is Mus musculus. Kind of test: Analgesic activity against acetic acid induced mouse model assessed as reduction in writhing at 5 mg/kg, po administrated for 30 mins followed by acetic acid addition and measured after 20 mins by abdominal constriction test. More on the design: scale not given: the % may be the effect or the level left. The settings on record: time 50 min. A general note: Writhing tests count abdominal constrictions after an irritant is injected.

For test [2], the species on record is Homo sapiens. Briefly: Antiinflammatory activity against human blood incubated for 15 mins by thermostatic luminometric chemiluminescence based oxidative burst assay.
Test [3] concerns Mus musculus. Kind of test: Analgesic activity against acetic acid induced mouse model assessed as number of writhes at 5 mg/kg, po administrated for 30 mins followed by acetic acid addition and measured after 20 mins by abdominal constriction test. Particulars: time 50 min; call rule not given here.
Test [4] is described as follows: Antioxidant activity assessed as DPPH radical scavenging activity incubated for 30 mins by spectrophotometric analysis. A general note: DPPH is a stable violet radical that fades when it is reduced.
In test [5] the test system is Mus musculus. Kind of test: Analgesic activity against acetic acid induced mouse model assessed as reduction in writhing at 10 mg/kg, po administrated for 30 mins followed by acetic acid addition and measured after 20 mins by abdominal constriction test. More on the design: scale not given: the % may be the effect or the level left. Particulars: time 50 min.
Test [6] relates to Mus musculus. Briefly: Analgesic activity against acetic acid induced mouse model assessed as number of writhes at 10 mg/kg, po administrated for 30 mins followed by acetic acid addition and measured after 20 mins by abdominal constriction test. Particulars: time 50 min.
Setting [7] is: Homo sapiens, Blood, 0.25 h, read-out: IC50.

Where only a bound is given, the exact number is not on record here.

Broadly, the IC50 is the concentration that inhibits the measured activity by half. In the case of `CCN1CSC(=S)N(CC)C1`, the Activity in test [1] turned out to be 6.97%; in test [3], 40.21. In test [2] (setting [7]), the IC50 amounted to 5.1 µM.
For the compound `CC(C)N1CN(CC(=O)O)CSC1=S`, the IC50 result in test [2] is “Not Active”; in test [4] it was 87.5 µM.
As for `CCCCN1CSC(=S)N(CC(=O)O)C1`, the IC50 result in test [2] was “Not Active”.
On to `CCCN1CN(CC(=O)OCC)CSC1=S`, for which the Activity is listed as 32.05% in test [1] and 29.25 in test [3]. Also, the values for the IC50 in test [2] (setting [7]) and in test [4] were 7.1 µM and 87.5 µM, respectively.
With `CCCN1CSC(=S)N(CC(=O)O)C1`, the results for the IC50 in test [2] (setting [7]) and in test [4] were 39.7 µM and 93.6 µM, respectively.
On to `CCCCN1CN(CC(=O)O)CSC1=S`, for which the IC50 result in test [2] is given as “Not Active”.
With `CCN1CN(CC(=O)O)CSC1=S`, the IC50 entry in test [2] is listed as “Not Active”.
As for `CCCN1CN(CC(=O)O)CSC1=S`, the IC50 in test [2] (setting [7]) worked out at 23.8 µM; in test [4], 76.8 µM.
On to `CCCN1CN(CC(=O)OCc2ccccc2)CSC1=S`, for which, in test [2] (setting [7]), the IC50 was found to be 4.1 µM.
With `O=C(O)CN1CN(CCO)CSC1=S`, the results for the IC50 result in test [2] and in test [4] were “Not Active” and 74.6 µM, respectively.
With `COc1ccc(CN2CN(CC(=O)O)CSC2=S)cc1OC`, the IC50 in test [2] (setting [7]) was more than 100 µM; in test [4], 81.4 µM.
For the compound `CCCCN1CN(CC(=O)OCC)CSC1=S`, the IC50 in test [2] (setting [7]) is 14.4 µM.
`CCCN1CN(CC(=O)OC)CSC1=S`: the IC50 in test [2] (setting [7]) was 32.4 µM.
For the compound `CCN1CSC(=S)N(CC(=O)O)C1`, the concentration for half-maximal inhibition (IC50) result in test [2] is “Not Active”.
`C[C@H](c1ccccc1)N1CSC(=S)N([C@H](C)c2ccccc2)C1`: the Activity in test [1] is 9.3%; in test [3] it was 39. The IC50 in test [4] was 65.9 µM.
As to `C[C@@H](c1ccccc1)N1CSC(=S)N([C@@H](C)c2ccccc2)C1`, the Activity stood at 18.6% in test [1] and 35 in test [3]. In addition, the IC50 in test [4] was determined as 69.9 µM.
For `CC(c1ccccc1)N1CN(CCO)CSC1=S` (racemic), the IC50 entry in test [2] was “Not Active”; in test [4], 77.5 µM.
For the compound `CC(C)N1CSC(=S)N(C(C)c2ccccc2)C1` (racemic), the values for the Activity in test [1] and in test [3] were 4.65% and 41.35, respectively. The IC50 turned out to be 7.5 µM in test [2] (setting [7]) and 78.9 µM in test [4].
Consider `CCN1CSC(=S)N(C(C)c2ccccc2)C1` (racemic), for which the results for the IC50 in test [2] (setting [7]) and in test [4] were more than 100 µM and 61.2 µM, respectively.
For the compound `CC(c1ccccc1)N1CN(CC(=O)O)CSC1=S` (racemic), the values for the IC50 in test [2] (setting [7]) and in test [4] were 38.5 µM and 67.7 µM, respectively.
Regarding `CCCCN1CSC(=S)N(C(C)c2ccccc2)C1` (racemic), in test [2] (setting [7]), the IC50 is more than 100 µM.
For the compound `CCCN1CSC(=S)N(C(C)c2ccccc2)C1` (racemic), the IC50 in test [2] (setting [7]) worked out at 16.9 µM; in test [4], 69.9 µM.
`CC(C)Cc1ccc(C(C)C(=O)O)cc1` (stereo unspecified) [IBUPROFEN]: the IC50 in test [2] (setting [7]) is 11.2 µM.
`COc1ccc2c(c1)c(CC(=O)O)c(C)n2C(=O)c1ccc(Cl)cc1` [INDOMETHACIN]: the Activity in test [5] was 48.83%; in test [6], 22.88.

The values above are taken from ChEMBL document CHEMBL5223140, “Highly potent anti-inflammatory, analgesic and antioxidant activities of 3,5-disubstituted tetrahydro-2H-1,3,5-thiadiazine thiones” (Bioorg Med Chem Lett, 2023).
